# Data taken from PubChem BioAssay AID1745844 (Carcinogenic Potency Database (CPDB), 2022).
# “And” between values parts separate entries of the source, which are not always exact repeats. Identical values can stand only once.
# Tested on: rodent lifetime carcinogenesis bioassay, tumor incidence TD50
# Assay: chronic cancer bioassays in animals – CPDB, compiled studies (AID 1745844)
# Conditions: rat, strain Sprague-Dawley
smiles,measurement,setting,value
C=CCl,TD50,"females, inhaled, site: extrahepatic tissue, lesion: angioma, dosed 52 weeks, study length 111 weeks",115 mg/kg/day
same,TD50,"females, inhaled, site: extrahepatic tissue, lesion: angioma, dosed 52 weeks, study length 139 weeks",399 mg/kg/day
same,TD50,"females, inhaled, site: extrahepatic tissue, lesion: angiosarcoma, dosed 25 weeks, study length 135 weeks",2420 mg/kg/day
same,TD50,"females, inhaled, site: extrahepatic tissue, lesion: angiosarcoma, dosed 52 weeks, study length 111 weeks",52.9 mg/kg/day
same,TD50,"females, inhaled, site: extrahepatic tissue, lesion: angiosarcoma, dosed 52 weeks, study length 131 weeks",21400 mg/kg/day
same,TD50,"females, inhaled, site: kidney, lesion: nephroblastoma, dosed 25 weeks, study length 135 weeks",3140 mg/kg/day
same,TD50,"females, inhaled, site: kidney, lesion: nephroblastoma, dosed 52 weeks, study length 111 weeks",17.5 mg/kg/day
same,TD50,"females, inhaled, site: kidney, lesion: nephroblastoma, dosed 52 weeks, study length 139 weeks",230 mg/kg/day
same,TD50,"females, inhaled, site: liver, lesion: angioma, dosed 25 weeks, study length 127 weeks",913 mg/kg/day
same,TD50,"females, inhaled, site: liver, lesion: angioma, dosed 25 weeks, study length 135 weeks",507 mg/kg/day
same,TD50,"females, inhaled, site: liver, lesion: angioma, dosed 52 weeks, study length 111 weeks",30.7 mg/kg/day
same,TD50,"females, inhaled, site: liver, lesion: angioma, dosed 52 weeks, study length 139 weeks",378 mg/kg/day
same,TD50,"females, inhaled, site: liver, lesion: angioma, dosed 71 weeks, study length 71 weeks",9130 mg/kg/day
same,TD50,"females, inhaled, site: liver, lesion: angiosarcoma, dosed 25 weeks, study length 127 weeks",4460 mg/kg/day
same,TD50,"females, inhaled, site: liver, lesion: angiosarcoma, dosed 25 weeks, study length 135 weeks",2460 mg/kg/day
same,TD50,"females, inhaled, site: liver, lesion: angiosarcoma, dosed 52 weeks, study length 111 weeks",20.2 mg/kg/day
same,TD50,"females, inhaled, site: liver, lesion: angiosarcoma, dosed 52 weeks, study length 131 weeks",735 mg/kg/day and 21 mg/kg/day
same,TD50,"females, inhaled, site: liver, lesion: angiosarcoma, dosed 52 weeks, study length 139 weeks",113 mg/kg/day
same,TD50,"females, inhaled, site: liver, lesion: angiosarcoma, dosed 71 weeks, study length 71 weeks",240 mg/kg/day
same,TD50,"females, inhaled, site: liver, lesion: hepatocellular carcinoma, dosed 71 weeks, study length 71 weeks",1720 mg/kg/day
same,TD50,"females, inhaled, site: liver, lesion: hepatoma, dosed 25 weeks, study length 135 weeks",357 mg/kg/day
same,TD50,"females, inhaled, site: liver, lesion: hepatoma, dosed 52 weeks, study length 131 weeks",244 mg/kg/day
same,TD50,"females, inhaled, site: liver, lesion: hepatoma, dosed 52 weeks, study length 139 weeks",140 mg/kg/day
same,TD50,"females, inhaled, site: mammary gland, lesion: adenocarcinoma, dosed 25 weeks, study length 135 weeks",291 mg/kg/day
same,TD50,"females, inhaled, site: mammary gland, lesion: adenocarcinoma, dosed 52 weeks, study length 111 weeks",5.91 mg/kg/day
same,TD50,"females, inhaled, site: mammary gland, lesion: adenocarcinoma, dosed 52 weeks, study length 131 weeks",1.66 mg/kg/day
same,TD50,"females, inhaled, site: mammary gland, lesion: adenocarcinoma, dosed 52 weeks, study length 139 weeks",141 mg/kg/day
same,TD50,"males, by gavage, site: Zymbal's gland, lesion: carcinoma, dosed 52 weeks, study length 127 weeks",315 mg/kg/day
same,TD50,"males, by gavage, site: Zymbal's gland, lesion: carcinoma, dosed 59 weeks, study length 129 weeks",4.75 mg/kg/day
same,TD50,"males, by gavage, site: any site (literature study), lesion: several types, types named in the paper, dosed 52 weeks, study length 127 weeks",37.9 mg/kg/day
same,TD50,"males, by gavage, site: any site (literature study), lesion: several types, types named in the paper, dosed 59 weeks, study length 129 weeks",16.1 mg/kg/day
same,TD50,"males, by gavage, site: extrahepatic tissue, lesion: angioma, dosed 52 weeks, study length 127 weeks",409 mg/kg/day
same,TD50,"males, by gavage, site: kidney, lesion: nephroblastoma, dosed 52 weeks, study length 127 weeks",102 mg/kg/day
same,TD50,"males, by gavage, site: liver, lesion: angioma, dosed 52 weeks, study length 127 weeks",430 mg/kg/day
same,TD50,"males, by gavage, site: liver, lesion: angiosarcoma, dosed 52 weeks, study length 127 weeks",57.4 mg/kg/day
same,TD50,"males, by gavage, site: liver, lesion: angiosarcoma, dosed 59 weeks, study length 129 weeks",8.45 mg/kg/day
same,TD50,"males, by gavage, site: liver, lesion: hepatoma, dosed 59 weeks, study length 129 weeks",3.36 mg/kg/day
same,TD50,"males, inhaled, site: Zymbal's gland, lesion: carcinoma, dosed 25 weeks, study length 115 weeks",284 mg/kg/day
same,TD50,"males, inhaled, site: Zymbal's gland, lesion: carcinoma, dosed 25 weeks, study length 139 weeks",226 mg/kg/day
same,TD50,"males, inhaled, site: Zymbal's gland, lesion: carcinoma, dosed 52 weeks, study length 131 weeks",2320 mg/kg/day
same,TD50,"males, inhaled, site: Zymbal's gland, lesion: carcinoma, dosed 52 weeks, study length 139 weeks",50.4 mg/kg/day
same,TD50,"males, inhaled, site: adrenal gland, lesion: one or several types, types not named, dosed 52 weeks, study length 130 weeks",251 mg/kg/day
same,TD50,"males, inhaled, site: any site (literature study), lesion: several types, types named in the paper, dosed 25 weeks, study length 115 weeks",134 mg/kg/day
same,TD50,"males, inhaled, site: any site (literature study), lesion: several types, types named in the paper, dosed 25 weeks, study length 139 weeks",284 mg/kg/day
same,TD50,"males, inhaled, site: any site (literature study), lesion: several types, types named in the paper, dosed 52 weeks, study length 130 weeks",17.3 mg/kg/day
same,TD50,"males, inhaled, site: any site (literature study), lesion: several types, types named in the paper, dosed 52 weeks, study length 131 weeks",950 mg/kg/day
same,TD50,"males, inhaled, site: any site (literature study), lesion: several types, types named in the paper, dosed 52 weeks, study length 139 weeks",8.67 mg/kg/day
same,TD50,"males, inhaled, site: brain, lesion: neuroblastoma, dosed 52 weeks, study length 131 weeks",4580 mg/kg/day
same,TD50,"males, inhaled, site: extrahepatic tissue, lesion: angioma, dosed 25 weeks, study length 115 weeks",5810 mg/kg/day
same,TD50,"males, inhaled, site: extrahepatic tissue, lesion: angioma, dosed 52 weeks, study length 123 weeks",31.4 mg/kg/day
same,TD50,"males, inhaled, site: extrahepatic tissue, lesion: angioma, dosed 52 weeks, study length 131 weeks",8180 mg/kg/day
same,TD50,"males, inhaled, site: extrahepatic tissue, lesion: angioma, dosed 52 weeks, study length 139 weeks",18 mg/kg/day
